Experiments:
Experiment in all cases: In Vitro Kinase Assay
Settings in all cases: pH 7
[1] = target: ALK tyrosine kinase receptor (Homo sapiens, UniProt Q9UM73)
Description: (§1) Inhibition of kinase activity against a variety of recombinant kinases [FLT3, FLT3 D835Y, anaplastic lymphoma kinase (ALK), insulin receptor, and epidermal growthfactor receptor (EGFR)] was measured using homogeneous time-resolved fluorescence (HTRF) assays [Choi et al., Bioorg. Med. Chem. Lett., 20:2033-2037]. Assays consist of enzymes mixed with serially diluted compounds and peptide substrates in a kinase reaction buffer (250 mM HEPES (pH 7.0), 0.5 mM orthovanadate, 0.05% bovine serum albumin, 0.1% NaN3). Following the addition of reagents for detection, the TR-FRET signal was measured using an EnVision multi-label reader (Perkin Elmer, Waltham, MA).

[2] = target: Epidermal growth factor receptor (Homo sapiens, UniProt P00533)
Sequence of Epidermal growth factor receptor (P00533 whole entry): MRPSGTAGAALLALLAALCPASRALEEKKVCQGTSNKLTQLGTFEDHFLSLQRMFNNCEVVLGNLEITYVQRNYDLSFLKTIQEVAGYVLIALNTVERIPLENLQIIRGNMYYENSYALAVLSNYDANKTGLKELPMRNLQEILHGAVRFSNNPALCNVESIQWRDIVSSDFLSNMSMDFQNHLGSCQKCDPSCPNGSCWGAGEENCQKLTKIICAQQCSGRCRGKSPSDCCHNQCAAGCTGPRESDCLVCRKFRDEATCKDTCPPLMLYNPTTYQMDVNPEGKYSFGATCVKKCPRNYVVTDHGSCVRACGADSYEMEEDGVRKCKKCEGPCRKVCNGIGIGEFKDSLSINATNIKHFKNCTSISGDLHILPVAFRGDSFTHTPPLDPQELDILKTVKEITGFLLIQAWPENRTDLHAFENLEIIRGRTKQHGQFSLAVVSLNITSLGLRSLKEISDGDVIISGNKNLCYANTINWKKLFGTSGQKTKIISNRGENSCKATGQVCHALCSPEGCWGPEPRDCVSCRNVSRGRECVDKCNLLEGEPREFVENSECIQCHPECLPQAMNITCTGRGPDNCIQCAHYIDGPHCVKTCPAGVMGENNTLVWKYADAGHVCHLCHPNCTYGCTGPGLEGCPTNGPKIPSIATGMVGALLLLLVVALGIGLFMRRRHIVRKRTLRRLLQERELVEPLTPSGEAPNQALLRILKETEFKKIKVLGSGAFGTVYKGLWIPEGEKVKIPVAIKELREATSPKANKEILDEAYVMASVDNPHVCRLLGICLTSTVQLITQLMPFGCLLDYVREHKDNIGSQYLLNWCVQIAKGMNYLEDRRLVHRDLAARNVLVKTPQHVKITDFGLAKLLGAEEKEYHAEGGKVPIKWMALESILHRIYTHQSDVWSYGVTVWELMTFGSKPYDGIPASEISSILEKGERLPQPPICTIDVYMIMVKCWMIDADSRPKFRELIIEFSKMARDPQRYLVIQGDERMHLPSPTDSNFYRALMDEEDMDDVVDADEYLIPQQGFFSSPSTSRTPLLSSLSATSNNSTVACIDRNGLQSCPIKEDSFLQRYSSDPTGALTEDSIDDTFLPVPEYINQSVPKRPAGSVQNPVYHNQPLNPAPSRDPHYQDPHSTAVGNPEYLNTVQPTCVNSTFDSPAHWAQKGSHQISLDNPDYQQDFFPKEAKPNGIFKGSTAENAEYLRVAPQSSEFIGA
Description: as §1

Insulin receptor = Insulin receptor (Homo sapiens, UniProt P06213)
Sequence of Insulin receptor (P06213 28-758 limits assumed): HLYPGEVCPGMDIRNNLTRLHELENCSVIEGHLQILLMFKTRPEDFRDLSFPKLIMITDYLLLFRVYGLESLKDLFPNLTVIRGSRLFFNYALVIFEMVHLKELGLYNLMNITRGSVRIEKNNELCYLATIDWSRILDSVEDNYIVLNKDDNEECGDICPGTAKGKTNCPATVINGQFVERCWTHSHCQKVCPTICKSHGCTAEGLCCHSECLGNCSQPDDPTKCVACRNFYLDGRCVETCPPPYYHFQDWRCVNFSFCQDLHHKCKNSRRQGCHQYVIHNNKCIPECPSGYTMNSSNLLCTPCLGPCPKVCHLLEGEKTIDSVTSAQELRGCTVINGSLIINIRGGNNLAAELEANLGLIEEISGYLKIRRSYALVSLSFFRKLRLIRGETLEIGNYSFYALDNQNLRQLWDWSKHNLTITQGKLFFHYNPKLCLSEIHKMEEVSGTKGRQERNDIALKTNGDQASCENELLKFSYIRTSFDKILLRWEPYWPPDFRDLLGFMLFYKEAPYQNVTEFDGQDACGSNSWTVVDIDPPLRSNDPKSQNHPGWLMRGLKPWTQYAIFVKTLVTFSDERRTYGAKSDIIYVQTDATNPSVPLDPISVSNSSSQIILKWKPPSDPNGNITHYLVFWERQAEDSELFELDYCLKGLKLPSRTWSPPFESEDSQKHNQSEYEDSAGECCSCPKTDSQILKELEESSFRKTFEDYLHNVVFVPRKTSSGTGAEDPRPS
Sequence of Insulin receptor (P06213 763-1382 limits assumed): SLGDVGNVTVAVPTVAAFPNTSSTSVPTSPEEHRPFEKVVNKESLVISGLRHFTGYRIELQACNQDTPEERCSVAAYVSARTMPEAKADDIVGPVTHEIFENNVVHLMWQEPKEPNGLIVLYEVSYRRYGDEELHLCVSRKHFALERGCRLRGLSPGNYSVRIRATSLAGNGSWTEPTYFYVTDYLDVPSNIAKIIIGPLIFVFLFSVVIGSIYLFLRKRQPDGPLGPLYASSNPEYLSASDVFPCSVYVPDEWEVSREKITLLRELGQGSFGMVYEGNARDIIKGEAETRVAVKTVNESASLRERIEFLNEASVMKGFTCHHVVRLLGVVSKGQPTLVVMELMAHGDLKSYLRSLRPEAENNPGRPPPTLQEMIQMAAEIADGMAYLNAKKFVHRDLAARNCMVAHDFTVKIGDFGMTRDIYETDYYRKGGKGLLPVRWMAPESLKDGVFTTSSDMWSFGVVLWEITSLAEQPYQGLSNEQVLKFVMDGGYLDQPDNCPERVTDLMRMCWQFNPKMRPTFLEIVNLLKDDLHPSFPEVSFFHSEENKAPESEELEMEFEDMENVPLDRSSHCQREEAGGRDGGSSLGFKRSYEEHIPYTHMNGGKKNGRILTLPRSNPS
Description: as §1

Sequence of ALK tyrosine kinase receptor (Q9UM73 whole entry): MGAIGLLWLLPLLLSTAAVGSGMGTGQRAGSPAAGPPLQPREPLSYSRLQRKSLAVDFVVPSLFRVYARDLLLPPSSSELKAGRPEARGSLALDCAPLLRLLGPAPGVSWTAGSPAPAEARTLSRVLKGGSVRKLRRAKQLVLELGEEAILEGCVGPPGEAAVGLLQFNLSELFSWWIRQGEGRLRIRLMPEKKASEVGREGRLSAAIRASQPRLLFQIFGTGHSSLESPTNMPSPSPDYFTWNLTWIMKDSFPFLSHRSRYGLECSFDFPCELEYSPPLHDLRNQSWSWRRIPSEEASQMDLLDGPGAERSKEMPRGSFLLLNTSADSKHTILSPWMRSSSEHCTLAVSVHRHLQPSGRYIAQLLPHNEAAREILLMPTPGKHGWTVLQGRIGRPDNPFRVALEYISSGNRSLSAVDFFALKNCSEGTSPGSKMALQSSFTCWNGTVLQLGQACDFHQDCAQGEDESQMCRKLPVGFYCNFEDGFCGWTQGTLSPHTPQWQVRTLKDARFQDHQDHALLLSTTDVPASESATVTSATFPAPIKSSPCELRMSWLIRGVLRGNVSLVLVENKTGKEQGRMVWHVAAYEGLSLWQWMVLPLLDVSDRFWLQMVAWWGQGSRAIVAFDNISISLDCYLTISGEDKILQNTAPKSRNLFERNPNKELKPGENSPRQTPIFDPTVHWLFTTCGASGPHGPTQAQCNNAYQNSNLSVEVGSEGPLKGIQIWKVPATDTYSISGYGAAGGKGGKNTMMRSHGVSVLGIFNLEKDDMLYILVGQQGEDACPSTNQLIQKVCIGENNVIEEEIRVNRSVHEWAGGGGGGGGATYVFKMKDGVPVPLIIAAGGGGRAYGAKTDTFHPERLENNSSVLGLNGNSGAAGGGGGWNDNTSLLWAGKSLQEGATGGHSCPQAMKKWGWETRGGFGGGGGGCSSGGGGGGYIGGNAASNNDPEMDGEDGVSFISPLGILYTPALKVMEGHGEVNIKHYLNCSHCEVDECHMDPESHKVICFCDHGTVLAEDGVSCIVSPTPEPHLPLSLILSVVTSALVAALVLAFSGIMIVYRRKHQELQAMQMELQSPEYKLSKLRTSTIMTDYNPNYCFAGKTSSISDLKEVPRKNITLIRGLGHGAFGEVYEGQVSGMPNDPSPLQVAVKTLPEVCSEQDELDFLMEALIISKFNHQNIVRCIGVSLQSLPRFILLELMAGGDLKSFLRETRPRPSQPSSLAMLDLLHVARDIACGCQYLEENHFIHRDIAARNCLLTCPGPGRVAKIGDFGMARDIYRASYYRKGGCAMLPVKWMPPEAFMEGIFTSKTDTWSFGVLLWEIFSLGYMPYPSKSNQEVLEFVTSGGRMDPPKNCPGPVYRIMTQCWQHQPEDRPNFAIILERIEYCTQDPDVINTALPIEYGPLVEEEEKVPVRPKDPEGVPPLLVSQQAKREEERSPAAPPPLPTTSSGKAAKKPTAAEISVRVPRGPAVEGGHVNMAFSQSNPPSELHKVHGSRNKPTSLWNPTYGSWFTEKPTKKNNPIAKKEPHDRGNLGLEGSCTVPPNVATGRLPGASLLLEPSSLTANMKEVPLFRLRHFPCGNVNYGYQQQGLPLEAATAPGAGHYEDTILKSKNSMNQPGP

## O=c1c2cc(O)c(O)cc2oc2cc(O)c(C3O[C@H](CO)[C@@H](O)[C@H](O)[C@H]3O)c(O)c12 (stereo partly drawn) [Mangiferin]
[1]
  IC50: 0.81 µM
[2]
  IC50: > 10 µM
Insulin receptor
  IC50: > 10 µM
